Where a SMILES comes first, the peptide text is derived from it. [ ]: non-standard residue; d: D form. N(1S-Me-propyl)Gly = CC[C@H](C)NCC(=O)O; Nspe = C[C@H](NCC(=O)O)c1ccccc1; Nlys = NCCCCNCC(=O)O
Tests used:
[1] = system: RAGE; assay: Reversal of LPS-induced RAGE expression in previously stimulated THP-1 macrophages (confocal imaging); format: cell-based, human; conditions: additional 24 h, vs LPS alone
Description: THP-1 monocytes were differentiated as described above 20. Upon differentiation, these cells were then incubated (48 h) with media containing low-dose (2 ng/mL) LPS as a chronic pro-inflammatory stimulus 21. Following incubation, JPT1a or JPT1 was added for final concentrations of 25, 5, and 1 μM 22, and cells were incubated an additional 24 h. Treatment with 2 ng/mL LPS alone served as a positive control, while treatment with an equivalent volume of buffer diluted into media served as the vehicle. Media was collected for later assessment of cytokines via ELISA as described above 23. Cells were fixed and stained for RAGE, phalloidin (cytoplasmic marker), and DAPI (nuclear marker) 24. […] 25 All multi-channel images were converted to TIFF file format via ImageJ64 software for quantitative image analysis using a custom subroutine written in Matlab™ software to obtain the average RAGE expression per volume of cells, and the data generated was assessed for statistical significance using GraphPad Prism 7.0 software 26.
After 48 hours, half of the supernatant was removed, treated with JPT1a (dashed-grey) at final concentrations of 25, 5, 1, and 0 μM (positive control), and then added back to respective samples. […] Images were analyzed via custom MATLAB™ subroutine to determine the average quantity of RAGE present within a given volume of cells. […]

[2] = target: RAGE (Homo sapiens, UniProt Q15109); assay: RAGE binding to peptoid-coated 96-well plates, Scatchard plot; conditions: plates coated with 500 nM peptoid; JPT1a n=3 average, JPT1 n=1
Description: As shown in FIGS. 7A-7D, 96-well plates coated with 500 nM JPT1a were treated with concentrations of RAGE (FIG. 7A) or E-cadherin (FIG. 7B) ranging from 1 to 500 nM. Values are reported as the average concentration of bound protein determined from all experiments. Error bars indicate SEM, n=2-5. […] In FIG. 7D, 96-well plates coated with 500 nM JPT1 were treated with concentrations of RAGE ranging from 1 to 350 nM.

[3] = system: RAGE; assay: Aβ1-42 oligomer induced RAGE expression in THP1 macrophages (confocal imaging); format: cell-based, human; conditions: 3 days
Description: Aβ1-42 oligomers were prepared at 15 μM through the addition of 12 mM phosphate containing […] to DMSO-solubilized AP. After 15-minute incubation, oligomerization was halted and used to immediately prepare treatments of 10 nM Aβ1-42 oligomers alone (positive control) or in the presence of the peptoid at concentrations ranging from 1 μM to 25 μM. Treatments were applied to THP1 macrophages for 3 days prior to cell fixation and staining. Treatment with 10 nM Aβ1-42 oligomers alone served as a positive control, while treatment with an equivalent volume of buffer diluted into media served as the vehicle. Treatment with 15 μM JPT1a ensured that JPT1a alone had no effect. Cells were fixed and stained for RAGE, phalloidin (cytoplasmic marker), and DAPI (nuclear marker). […] All multi-channel images were converted to TIFF file format via ImageJ64 software for quantitative image analysis using a custom subroutine written in MATLAB™ software to obtain the average RAGE expression per volume of cells.
Treatment with an equivalent volume of buffer diluted into media served as the vehicle. Treatment with 25 μM JPT1a in the presence of vehicle assessed the effect of the peptoid alone (black). Images were analyzed via custom MATLAB™ subroutine to determine the average quantity of RAGE present within a given volume of cells. […]

[4] = system: IL-1β; assay: IL-1β expression in previously LPS-stimulated THP1 macrophages (ELISA); format: cell-based, human; conditions: 25, 5, 1 μM added after 48 h of 2 ng/mL LPS, additional 24 h
Description: THP-1 monocytes were differentiated as described above 20. Upon differentiation, these cells were then incubated (48 h) with media containing low-dose (2 ng/mL) LPS as a chronic pro-inflammatory stimulus 21. Following incubation, JPT1a or JPT1 was added for final concentrations of 25, 5, and 1 μM 22, and cells were incubated an additional 24 h. Treatment with 2 ng/mL LPS alone served as a positive control, while treatment with an equivalent volume of buffer diluted into media served as the vehicle. Media was collected for later assessment of cytokines via ELISA as described above 23. Cells were fixed and stained for RAGE, phalloidin (cytoplasmic marker), and DAPI (nuclear marker) 24. Each channel was imaged with a Zeiss LSM 510 META Confocal Scanning Laser Microscope using a plan-neofluar 40×/1.3 oil DIC immersion objective; three of these multi-channel images were obtained from each slide in each experiment. 25 All multi-channel images were converted to TIFF file format via ImageJ64 software for quantitative image analysis using a custom subroutine written in Matlab™ software to obtain the average RAGE expression per volume of cells, and the data generated was assessed for statistical significance using GraphPad Prism 7.0 software 26.
As shown in FIGS. 4B-4D, THP1 macrophages were treated with low-dose LPS at 2 ng/mL. […]

Chain of RAGE (Homo sapiens, UniProt Q15109) (Q15109 23-404): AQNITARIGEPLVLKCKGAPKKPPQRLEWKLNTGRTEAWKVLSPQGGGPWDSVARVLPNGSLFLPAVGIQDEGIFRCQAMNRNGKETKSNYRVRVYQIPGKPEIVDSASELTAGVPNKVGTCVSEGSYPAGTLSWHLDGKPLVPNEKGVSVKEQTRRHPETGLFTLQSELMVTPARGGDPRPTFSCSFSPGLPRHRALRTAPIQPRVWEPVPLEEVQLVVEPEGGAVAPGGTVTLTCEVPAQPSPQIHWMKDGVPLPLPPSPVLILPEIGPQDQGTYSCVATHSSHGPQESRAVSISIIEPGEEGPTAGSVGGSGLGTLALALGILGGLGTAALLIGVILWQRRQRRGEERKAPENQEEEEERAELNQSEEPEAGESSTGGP

CC[C@H](C)N(CC(=O)N(CC(=O)N(CC(=O)N(CC(=O)N(CC(=O)N(CC(=O)N(CC(N)=O)[C@@H](C)c1ccccc1)[C@@H](C)c1ccccc1)[C@@H](C)CC)[C@@H](C)c1ccccc1)[C@@H](C)c1ccccc1)[C@@H](C)CC)C(=O)CNCCCCN [JPT1a] (H-[Nlys][N(1S-Me-propyl)Gly][N(1S-Me-propyl)Gly][Nspe][Nspe][N(1S-Me-propyl)Gly][Nspe][Nspe]-NH2)
reversal in LPS-induced RAGE expression ([1]; 5 μM added after 48 h of 2 ng/mL LPS): significant reversal | reversal in LPS-induced RAGE expression ([1]; 25 μM added after 48 h of 2 ng/mL LPS): significant reversal | Kd [2]: 51.8 ± 7.3 nM | expression of RAGE, JPT1a alone ([3]; 25 μM JPT1a in the presence of vehicle): does not provoke significant response or upregulation | Aβ1-42 oligomer induced RAGE expression ([3]; JPT1a 25, 10, 5 or 1 μM with 10 nM Aβ1-42 oligomers, fraction of positive control): dose-dependent reduction | IL-1β production of previously stimulated macrophages [4]: does not affect cytokine production

— patent publication US11197908B2, “Peptoids and methods for attenuating inflammatory response” (THE BOARD OF TRUSTEES OF THE UNIVERSITY OF ARKANSAS, priority 2018, dated 2021)
